Calls of active or inactive are those of the source. No cut-off for these calls is given here.
Columns and labels:
[1] = molecular target: T1, Toll-like receptor 7 (Mus musculus) (UniProt P58681); assay: (§1) Agonist activity at mouse TLR7
T1 sequence (whole entry): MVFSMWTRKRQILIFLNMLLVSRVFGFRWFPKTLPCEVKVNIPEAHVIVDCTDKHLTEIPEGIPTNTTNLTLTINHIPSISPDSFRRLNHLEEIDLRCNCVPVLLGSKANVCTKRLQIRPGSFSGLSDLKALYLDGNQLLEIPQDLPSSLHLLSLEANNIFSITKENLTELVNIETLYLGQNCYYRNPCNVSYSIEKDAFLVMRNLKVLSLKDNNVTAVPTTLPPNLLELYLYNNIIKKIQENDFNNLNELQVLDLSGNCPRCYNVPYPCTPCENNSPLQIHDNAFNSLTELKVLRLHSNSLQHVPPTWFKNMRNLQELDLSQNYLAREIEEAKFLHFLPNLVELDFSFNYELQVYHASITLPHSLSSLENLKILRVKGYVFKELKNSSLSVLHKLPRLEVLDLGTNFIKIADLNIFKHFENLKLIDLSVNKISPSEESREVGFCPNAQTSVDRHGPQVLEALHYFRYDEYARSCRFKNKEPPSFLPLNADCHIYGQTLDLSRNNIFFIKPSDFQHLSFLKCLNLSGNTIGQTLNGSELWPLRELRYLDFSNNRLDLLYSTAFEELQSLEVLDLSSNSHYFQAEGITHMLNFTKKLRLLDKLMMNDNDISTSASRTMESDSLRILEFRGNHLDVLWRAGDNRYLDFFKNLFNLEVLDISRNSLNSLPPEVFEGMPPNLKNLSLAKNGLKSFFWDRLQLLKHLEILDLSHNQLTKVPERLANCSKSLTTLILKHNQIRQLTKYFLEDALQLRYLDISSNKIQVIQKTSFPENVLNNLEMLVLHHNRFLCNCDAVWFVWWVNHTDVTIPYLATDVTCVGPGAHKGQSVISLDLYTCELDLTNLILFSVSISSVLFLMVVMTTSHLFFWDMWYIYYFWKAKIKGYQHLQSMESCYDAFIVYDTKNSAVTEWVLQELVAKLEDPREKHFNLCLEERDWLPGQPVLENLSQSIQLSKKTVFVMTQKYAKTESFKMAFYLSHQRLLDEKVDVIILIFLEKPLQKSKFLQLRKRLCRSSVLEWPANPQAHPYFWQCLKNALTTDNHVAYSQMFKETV

Cytochrome P450 2C19 = Cytochrome P450 2C19 (Homo sapiens, UniProt P33261); assay: Inhibition of CYP2C19 (unknown origin); type: ADME
[2] = Cytotoxicity against PHA-activated T-cells (unknown origin) assessed as inhibition of IL-2 induced cell proliferation measured after 72 hrs by MTS assay; type: toxicity, cell-based
Cytochrome P450 3A4 [3] = molecular target: T2, Cytochrome P450 3A4 (Homo sapiens, UniProt P08684); assay: Inhibition of CYP3A4 (unknown origin) using BFC as substrate preincubated with compound followed by substrate addition at 5 mins; type: ADME
Cytochrome P450 2D6 = Cytochrome P450 2D6 (Homo sapiens, UniProt P10635); assay: Inhibition of CYP2D6 (unknown origin); type: ADME
[4] = Metabolic stability in human liver microsomes assessed as compound remaining at 0.5 uM incubated for 10 mins in presence of NADPH by UV absorbance based assay; type: ADME, Microsome; conditions: read-out: Stability
Cytochrome P450 3A4 [5] = molecular target: T2, Cytochrome P450 3A4; assay: Inhibition of CYP3A4 (unknown origin) using BFC as substrate preincubated with compound followed by substrate addition at 30 mins; type: ADME
Cytochrome P450 1A2 = molecular target: T3, Cytochrome P450 1A2 (Homo sapiens, UniProt P05177); assay: Inhibition of CYP1A2 (unknown origin); type: ADME
T3 sequence (P05177 whole entry): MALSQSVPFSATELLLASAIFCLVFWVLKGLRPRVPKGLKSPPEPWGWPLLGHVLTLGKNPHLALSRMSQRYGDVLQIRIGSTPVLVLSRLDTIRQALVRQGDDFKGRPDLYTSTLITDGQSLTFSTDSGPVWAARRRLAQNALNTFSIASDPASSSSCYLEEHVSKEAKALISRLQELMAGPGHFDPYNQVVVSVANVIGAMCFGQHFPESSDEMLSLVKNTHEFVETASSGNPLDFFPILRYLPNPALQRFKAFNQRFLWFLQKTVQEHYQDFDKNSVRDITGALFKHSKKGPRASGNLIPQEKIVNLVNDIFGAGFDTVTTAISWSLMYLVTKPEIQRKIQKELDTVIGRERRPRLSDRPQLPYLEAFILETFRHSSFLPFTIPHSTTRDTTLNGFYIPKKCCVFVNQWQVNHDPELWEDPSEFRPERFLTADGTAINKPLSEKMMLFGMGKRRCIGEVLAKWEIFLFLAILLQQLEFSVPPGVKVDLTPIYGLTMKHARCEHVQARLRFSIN

Toll-like receptor 7 [6] = molecular target: T4, Toll-like receptor 7 (Homo sapiens, UniProt Q9NYK1); assay: Agonist activity at human TLR7 in HEK-Blue hTLR7 cells harboring SEAP reporter transgene incubated for 18 hrs by quanti-blue reagent based assay; type: cell-based
T4 sequence (Q9NYK1 whole entry): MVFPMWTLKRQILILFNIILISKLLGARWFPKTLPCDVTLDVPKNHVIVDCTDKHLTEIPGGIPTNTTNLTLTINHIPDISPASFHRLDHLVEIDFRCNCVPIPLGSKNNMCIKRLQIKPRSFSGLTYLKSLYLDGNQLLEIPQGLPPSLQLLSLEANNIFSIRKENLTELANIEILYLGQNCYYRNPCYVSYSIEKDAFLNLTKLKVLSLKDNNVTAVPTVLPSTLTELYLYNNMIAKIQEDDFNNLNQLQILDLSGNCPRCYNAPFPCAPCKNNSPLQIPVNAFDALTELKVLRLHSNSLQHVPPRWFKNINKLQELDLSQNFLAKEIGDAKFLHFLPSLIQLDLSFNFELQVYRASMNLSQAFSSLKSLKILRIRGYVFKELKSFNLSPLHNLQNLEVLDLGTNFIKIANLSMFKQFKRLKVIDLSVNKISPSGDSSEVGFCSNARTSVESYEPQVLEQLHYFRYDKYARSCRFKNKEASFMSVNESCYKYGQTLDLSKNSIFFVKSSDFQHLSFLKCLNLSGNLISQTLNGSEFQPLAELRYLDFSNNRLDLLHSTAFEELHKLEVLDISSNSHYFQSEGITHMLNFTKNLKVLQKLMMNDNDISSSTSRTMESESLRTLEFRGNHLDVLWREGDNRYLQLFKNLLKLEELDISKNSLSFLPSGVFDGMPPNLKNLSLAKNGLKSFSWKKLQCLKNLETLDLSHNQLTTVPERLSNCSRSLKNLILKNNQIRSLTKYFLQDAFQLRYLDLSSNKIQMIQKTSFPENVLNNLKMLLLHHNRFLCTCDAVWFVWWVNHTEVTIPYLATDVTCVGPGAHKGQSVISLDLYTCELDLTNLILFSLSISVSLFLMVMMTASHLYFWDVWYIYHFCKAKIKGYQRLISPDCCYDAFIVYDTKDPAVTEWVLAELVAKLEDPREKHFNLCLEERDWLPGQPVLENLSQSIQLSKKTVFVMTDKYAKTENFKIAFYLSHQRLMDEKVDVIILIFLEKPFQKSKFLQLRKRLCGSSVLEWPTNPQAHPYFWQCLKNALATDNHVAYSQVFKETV

Cytochrome P450 3A4 [7] = molecular target: T2, Cytochrome P450 3A4; assay: Inhibition of CYP3A4 (unknown origin) using BFC as substrate; type: ADME
Cytochrome P450 2C9 = Cytochrome P450 2C9 (Homo sapiens, UniProt P11712); assay: Inhibition of CYP2C9 (unknown origin); type: ADME
Cytochrome P450 2C8 = molecular target: T5, Cytochrome P450 2C8 (Homo sapiens, UniProt P10632); assay: Inhibition of CYP2C8 (unknown origin); type: ADME
T5 sequence (P10632 whole entry): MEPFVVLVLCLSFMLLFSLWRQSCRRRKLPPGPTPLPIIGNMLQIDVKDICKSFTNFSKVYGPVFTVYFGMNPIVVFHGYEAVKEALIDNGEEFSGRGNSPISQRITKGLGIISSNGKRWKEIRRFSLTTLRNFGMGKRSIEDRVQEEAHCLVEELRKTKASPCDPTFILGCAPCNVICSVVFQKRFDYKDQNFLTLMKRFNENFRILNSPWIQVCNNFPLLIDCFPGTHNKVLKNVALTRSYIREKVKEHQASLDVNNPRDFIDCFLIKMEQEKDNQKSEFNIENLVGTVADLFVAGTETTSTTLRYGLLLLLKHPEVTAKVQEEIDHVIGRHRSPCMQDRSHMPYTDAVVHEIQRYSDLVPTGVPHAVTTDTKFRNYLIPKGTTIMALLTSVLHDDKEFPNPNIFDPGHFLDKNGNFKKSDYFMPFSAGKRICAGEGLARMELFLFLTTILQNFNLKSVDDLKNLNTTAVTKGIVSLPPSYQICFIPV

[8] = Metabolic stability in mouse liver microsomes assessed as compound remaining at 0.5 uM incubated for 10 mins in presence of NADPH by UV absorbance based assay; type: ADME, Microsome; conditions: read-out: Stability
[9] = molecular target: Voltage-gated inwardly rectifying potassium channel KCNH2 (Homo sapiens, UniProt Q12809); assay: Inhibition of hERG; type: toxicity
Toll-like receptor 7 [10] = molecular target: T6, Toll-like receptor 7 (Mus musculus, UniProt P58681); assay: as §1
T6 sequence (P58681 whole entry): T1 sequence (whole entry)

[11] = Permeability of compound at pH 7.4 by PAMPA; type: ADME; conditions: read-out: permeability

Cytochrome P450 2C9, sequence (P11712 whole entry): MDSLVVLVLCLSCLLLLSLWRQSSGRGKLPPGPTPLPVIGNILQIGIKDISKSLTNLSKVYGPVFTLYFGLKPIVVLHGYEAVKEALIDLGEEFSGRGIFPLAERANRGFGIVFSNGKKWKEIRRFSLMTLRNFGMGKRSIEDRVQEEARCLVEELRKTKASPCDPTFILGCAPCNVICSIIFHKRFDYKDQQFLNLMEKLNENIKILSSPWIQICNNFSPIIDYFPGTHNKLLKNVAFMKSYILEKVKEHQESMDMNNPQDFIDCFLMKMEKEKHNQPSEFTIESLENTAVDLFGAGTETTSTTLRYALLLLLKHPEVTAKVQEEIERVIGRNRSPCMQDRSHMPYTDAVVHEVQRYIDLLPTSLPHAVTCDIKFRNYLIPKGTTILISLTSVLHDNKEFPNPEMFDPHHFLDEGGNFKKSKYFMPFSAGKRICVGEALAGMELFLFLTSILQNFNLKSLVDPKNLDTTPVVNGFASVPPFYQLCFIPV
Cytochrome P450 2C19, sequence (P33261 whole entry): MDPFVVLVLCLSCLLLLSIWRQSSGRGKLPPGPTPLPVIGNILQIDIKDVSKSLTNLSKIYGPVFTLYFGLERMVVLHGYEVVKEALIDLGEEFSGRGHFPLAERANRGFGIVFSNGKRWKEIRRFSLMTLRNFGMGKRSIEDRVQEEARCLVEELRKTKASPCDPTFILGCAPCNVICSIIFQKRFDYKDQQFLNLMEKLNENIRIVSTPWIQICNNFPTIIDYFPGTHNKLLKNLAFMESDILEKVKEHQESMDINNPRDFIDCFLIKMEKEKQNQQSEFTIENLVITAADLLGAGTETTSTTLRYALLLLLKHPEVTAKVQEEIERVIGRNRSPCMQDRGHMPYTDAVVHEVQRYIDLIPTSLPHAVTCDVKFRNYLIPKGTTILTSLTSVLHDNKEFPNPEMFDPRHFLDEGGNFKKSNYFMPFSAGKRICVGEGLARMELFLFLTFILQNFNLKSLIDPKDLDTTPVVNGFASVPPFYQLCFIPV
Voltage-gated inwardly rectifying potassium channel KCNH2, sequence (Q12809 whole entry): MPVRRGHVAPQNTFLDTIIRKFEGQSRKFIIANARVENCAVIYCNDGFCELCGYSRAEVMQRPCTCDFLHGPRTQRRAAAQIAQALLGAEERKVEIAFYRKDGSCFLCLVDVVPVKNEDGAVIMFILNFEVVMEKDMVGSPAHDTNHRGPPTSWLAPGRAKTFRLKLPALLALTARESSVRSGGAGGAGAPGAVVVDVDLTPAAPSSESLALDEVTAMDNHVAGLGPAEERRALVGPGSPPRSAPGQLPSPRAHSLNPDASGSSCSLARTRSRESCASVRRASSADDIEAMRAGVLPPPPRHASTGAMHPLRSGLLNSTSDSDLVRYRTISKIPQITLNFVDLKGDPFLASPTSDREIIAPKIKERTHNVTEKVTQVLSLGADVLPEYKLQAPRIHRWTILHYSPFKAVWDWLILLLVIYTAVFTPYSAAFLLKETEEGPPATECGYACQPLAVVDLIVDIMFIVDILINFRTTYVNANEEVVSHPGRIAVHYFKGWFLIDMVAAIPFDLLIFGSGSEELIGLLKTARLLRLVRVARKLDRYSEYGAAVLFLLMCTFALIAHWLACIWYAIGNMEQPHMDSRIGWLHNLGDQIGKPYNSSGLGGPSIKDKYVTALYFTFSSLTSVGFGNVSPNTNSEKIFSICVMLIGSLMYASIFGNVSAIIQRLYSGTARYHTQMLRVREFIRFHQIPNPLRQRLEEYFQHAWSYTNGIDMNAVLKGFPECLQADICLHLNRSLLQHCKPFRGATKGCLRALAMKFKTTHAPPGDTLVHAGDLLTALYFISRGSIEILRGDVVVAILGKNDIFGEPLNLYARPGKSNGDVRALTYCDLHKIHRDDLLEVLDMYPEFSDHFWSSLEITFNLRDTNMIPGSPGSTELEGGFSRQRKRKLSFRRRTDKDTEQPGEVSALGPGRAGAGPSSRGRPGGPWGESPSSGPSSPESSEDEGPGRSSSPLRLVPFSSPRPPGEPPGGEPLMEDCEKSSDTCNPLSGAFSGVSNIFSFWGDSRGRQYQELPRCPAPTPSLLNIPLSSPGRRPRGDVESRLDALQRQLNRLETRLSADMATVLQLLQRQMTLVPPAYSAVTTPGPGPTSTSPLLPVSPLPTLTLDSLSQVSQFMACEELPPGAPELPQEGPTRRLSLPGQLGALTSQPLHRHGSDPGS
T2 sequence (P08684 whole entry): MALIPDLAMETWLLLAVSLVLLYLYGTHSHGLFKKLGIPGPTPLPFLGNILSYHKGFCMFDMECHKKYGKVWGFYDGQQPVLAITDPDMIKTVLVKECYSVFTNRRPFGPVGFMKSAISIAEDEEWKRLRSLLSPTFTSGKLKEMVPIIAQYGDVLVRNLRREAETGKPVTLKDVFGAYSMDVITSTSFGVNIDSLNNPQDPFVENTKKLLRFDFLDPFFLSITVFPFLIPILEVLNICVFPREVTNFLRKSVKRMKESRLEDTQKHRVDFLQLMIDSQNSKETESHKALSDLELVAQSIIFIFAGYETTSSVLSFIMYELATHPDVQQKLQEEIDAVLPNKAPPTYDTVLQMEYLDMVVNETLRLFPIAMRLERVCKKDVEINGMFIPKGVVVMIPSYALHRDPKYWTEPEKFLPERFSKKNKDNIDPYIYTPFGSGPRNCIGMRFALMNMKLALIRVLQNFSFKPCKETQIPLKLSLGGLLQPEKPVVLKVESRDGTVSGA
Cytochrome P450 2D6, sequence (P10635 whole entry): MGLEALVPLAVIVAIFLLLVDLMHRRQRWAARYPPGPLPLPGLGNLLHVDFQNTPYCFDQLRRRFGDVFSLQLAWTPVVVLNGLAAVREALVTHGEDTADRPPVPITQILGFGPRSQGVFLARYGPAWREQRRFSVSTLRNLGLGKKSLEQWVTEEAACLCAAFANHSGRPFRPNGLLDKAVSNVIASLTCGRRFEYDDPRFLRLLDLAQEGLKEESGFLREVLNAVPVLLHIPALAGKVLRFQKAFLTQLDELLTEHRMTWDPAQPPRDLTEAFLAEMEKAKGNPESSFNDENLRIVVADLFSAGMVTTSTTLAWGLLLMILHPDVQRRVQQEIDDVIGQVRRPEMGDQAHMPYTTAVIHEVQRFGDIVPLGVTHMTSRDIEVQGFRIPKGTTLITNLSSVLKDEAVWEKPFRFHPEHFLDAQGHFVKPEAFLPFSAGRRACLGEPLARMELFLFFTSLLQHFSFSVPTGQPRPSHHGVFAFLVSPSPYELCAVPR

Row | Structure (SMILES) | Activity [1] | IC50 (Cytochrome P450 2C19) [µM] | IC50 at 72 h [2] [µM] | IC50 (Cytochrome P450 3A4 [3]) [µM] | IC50 (Cytochrome P450 2D6) [µM] | remaining at 10 min, 0.5 µM [4] [%] | IC50 (Cytochrome P450 3A4 [5]) [µM] | IC50 (Cytochrome P450 1A2) [µM] | EC50 (Toll-like receptor 7 [6]) [µM] | IC50 (Cytochrome P450 3A4 [7]) [µM] | IC50 (Cytochrome P450 2C9) [µM] | IC50 (Cytochrome P450 2C8) [µM] | remaining at 10 min, 0.5 µM [8] [%] | IC50 [9] [µM] | EC50 (Toll-like receptor 7 [10]) [µM] | Papp [11] [×10⁻⁶ cm/s]
1 | CCC[C@@H](CCO)Nc1nc(N)nc2cnn(Cc3ncc(C4CCN(CC#N)CC4)cc3OC)c12 | inactive | > 20 | > 25 | > 20 | > 20 | 65 | > 20 | > 20 | 0.145 | > 20 | > 20 | > 20 | 67 | 30.2 |  | 
2 | CCC[C@@H](CCO)Nc1nc(N)nc2cnn(Cc3ncc(C4CCNCC4)cc3OC)c12 |  | > 20 | > 25 | > 20 | > 20 | 84 | > 20 | > 20 | 0.163 | > 20 | > 20 | > 20 | 85 | > 50 | 0.512 | 0.9
3 | CCC[C@H](CCO)Nc1nc(N)nc2cnn(Cc3ncc(C4CCN(C5CCOCC5)CC4)cc3OC)c12 | inactive | > 20 | > 25 | > 20 | > 20 | 67 | > 20 | > 20 | 0.272 | > 20 | > 20 | > 20 | 95 | > 50 |  | 
4 | CCC[C@@H](CCO)Nc1nc(N)nc2cnn(Cc3ncc(C4CCN(C)CC4)cc3OC)c12 |  | > 20 | > 25 | > 20 | > 20 | 78 | > 20 | > 20 |  | > 20 | > 20 | > 20 | 76 | 43 | 0.076 | 6.6
5 | CCC[C@@H](CCO)Nc1nc(N)nc2cnn(Cc3ncc(C4CCN(C5CCN(C)CC5)CC4)cc3OC)c12 | inactive | > 20 | > 25 | > 20 | > 20 | 99 | > 20 | > 20 |  | > 20 | > 20 | > 20 | 85 | > 50 |  | 
6 | CCC[C@@H](CCO)Nc1nc(N)nc2cnn(Cc3ncc(C4CCN(C(C)C)CC4)cc3OC)c12 |  | > 20 | > 25 | > 20 | > 20 | 80 | > 20 | > 20 | 0.018 | > 20 | > 20 | > 20 | 78 | > 50 | 0.041 | 93

Source: ChEMBL document CHEMBL5357082, “Identification and Optimization of Small Molecule Pyrazolopyrimidine TLR7 Agonists for Applications in Immuno-oncology” (ACS Med Chem Lett, 2024)
